US10933076B2, “Crocin-sorafenib combination therapy for liver cancer” (United Arab Emirates University, priority 2019, dated 2021)

What was measured:
Format in all cases: in vivo, male Wistar rats
DEN-induced HCC [1] = assay: Liver enzymes (ALT, AST) in serum of DEN-induced HCC rats, colorimetric assay
Procedure: (§1) In this study, 4 weeks old male Wistar rats were used. The rats were randomly divided into two groups; Control group (n=8) which received 1× PBS via intraperitoneal (i.p.) injection; Experimental group which were injected with DEN at 50 mg/kg b. wt. (Sigma Aldrich, USA) dissolved in PBS once a week for 16 weeks via i.p. This HCC induction protocol was modified from the protocol described by (DePeralta et al., 2016; Schiffer et al., 2005).
(§2) All drugs were orally administered with intragastric (gavage) tube. Doses and route of administration followed what was been previously reported in the literature.
(§3) For the HCC+sorafenib group, sorafenib (Carbosynth Limited) was administered at a dose of 10 mg/kg b.wt. […] A 0.3% solution of DMSO was used to dissolve the sorafenib. […] At the end of the experimental period and after a 24-hour post last drug administration, animals were euthanized using Diethyl ether and sacrificed and dissected under controlled conditions. Blood and liver tissue samples were collected and stored either at room temperature in buffered formalin for histological analysis or at −80 C in PBS for biochemical and immunoblotting analyses.

DEN-induced HCC [2] = assay: Histopathological evaluation of liver (H&E) in DEN-induced HCC rats; settings: HCC groups (FIG. 10)
Procedure: as §1, §2, §3

DEN-induced HCC [3] = assay: Macroscopic appearance of liver and number of lesions/nodules in DEN-induced HCC rats
Procedure: as §1, §2, §3

[4] = tested on: intrinsic apoptotic pathway; assay: Western blot of intrinsic apoptotic pathway proteins (Bax, Bcl-2, PARP, pro-caspase-3, pro-caspase-9) in livers of DEN-induced HCC rats
Procedure: as §1, §2, §3
Liver tissue samples (10 mg) were homogenized in cold RIPA buffer (Sigma Aldrich, USA) 2 μl of protease inhibitor and of phosphatases inhibitor were added to the homogenizing buffer (Sigma Aldrich, USA). Protein concentration of each liver sample was determined using the Bradford method (Bio-Rad, Hercules, Calif.) with the Promega GloMax Discover. In order to blot the proteins into the gel, 2-mercaptoethanol, […], was added to the cell lysate produced from the homogenization of liver tissues. The mixture of the lysate and loading dye was then loaded into the SDS-PAGE gel. Variations of gel percentages were used according to the size of protein to be determined. Following the separation of the protein content of each sample on the SDS-PAGE gel, proteins were transferred onto a PVDF membrane and blocked in 5% BSA in TBST or a 5% (w/v) non-fat milk at room temperature for one hour. After the blocking stage, the membranes were incubated with primary anti-body overnight at 4° C. In this study, the primary antibodies selected here were anti-Proliferating Cell Nuclear Antigen (PCNA), anti-caspase-3 (Cell Signaling Technology Inc.), anti-caspase-9 (Nous Biologicals), anti-PolyADP-ribose Polymerase (PARP), anti-Bcl-2, anti-Bax (Santa Cruz). Following the overnight incubation with primary antibodies, the membranes were extensively washed with TBST and re-probed with secondary antibodies including anti-rabbit IgG (Cell Signaling Technology, Inc, MA, USA) and anti-mouse IgG, and conjugated horseradish peroxidase for 1 hour at room temperature. Protein bands were then detected using a chemiluminescence solution known as WesternSure PREMIUM, the signal was detected and visualized using the Bio-Rad ChemiDoc XRS+ System. The intensity of the band was measured using the ImageJ software. The internal control used was total protein which was stained using the SYPRO Ruby protein gel stain following the protocol instructed by the manufacturer (Thermo Fisher Scientific).
Housekeeping proteins are used as the controls for every western blot analysis. Because of their stable expression in tissues, they are great indicators to validate the integrity of the protein samples loaded into the SDS-PAGE gel, therefore accurately reflecting the amount of proteins in the samples. Current research has investigated the ability of these housekeeping proteins to remain stable under different experimental conditions. […] Therefore, an alternative approach was used to resolve this issue. Total protein was utilized as the loading control; this protocol measures the whole protein content of a sample rather than relying on one protein.

reticulin network = assay: Reticulin staining of liver sections in DEN-induced HCC rats; settings: in comparison to HCC groups (FIG. 5)
Procedure: as §1, §2, §3

PCNA = assay: Western blot of PCNA in livers of DEN-induced HCC rats; settings: liver, versus HCC; P<0.01 (FIG. 6)
Procedure: as §1, §2
For the HCC+sorafenib group, sorafenib (Carbosynth Limited) was administered at a dose of 10 mg/kg b.wt. […]
Liver tissue samples (10 mg) were homogenized in cold RIPA buffer (Sigma Aldrich, USA) 2 μl of protease inhibitor and of phosphatases inhibitor were added to the homogenizing buffer (Sigma Aldrich, USA). Protein concentration of each liver sample was determined using the Bradford method (Bio-Rad, Hercules, Calif.) with the Promega GloMax Discover. […] Variations of gel percentages were used according to the size of protein to be determined. […] Protein bands were then detected using a chemiluminescence solution known as WesternSure PREMIUM, the signal was detected and visualized using the Bio-Rad ChemiDoc XRS+ System. The intensity of the band was measured using the ImageJ software. […]

[5] = liver, compared to the HCC group alone, P<0.01 (FIG. 8)
[6] = liver, compared to the HCC group, P<0.05 (FIG. 9)

CC(/C=C/C=C(\C)C(=O)O[C@@H]1O[C@H](CO[C@@H]2O[C@H](CO)[C@@H](O)[C@H](O)[C@H]2O)[C@@H](O)[C@H](O)[C@H]1O)=C\C=C\C=C(C)\C=C\C=C(/C)C(=O)O[C@@H]1O[C@H](CO[C@@H]2O[C@H](CO)[C@@H](O)[C@H](O)[C@H]2O)[C@@H](O)[C@H](O)[C@H]1O [crocin, Crocetin di-gentiobiose ester]
levels of ALT and AST in the blood (DEN-induced HCC [1]; in comparison to DEN-induced HCC rats (FIG. 11)): great impact on lowering the levels of both ALT and AST | level of ALT in serum (DEN-induced HCC [1]; in comparison to the HCC group, crocin 200 mg/kg b.wt., sorafenib 10 mg/kg b.wt., oral gavage 5 times a week, week 17 to 19, P<0.01): decrease in the level of ALT | level of ALT in serum (DEN-induced HCC [1]; in comparison to the sorafenib alone group (HCC+sorafenib), P<0.05): significantly decreased levels of ALT | architecture of the liver (H&E histology) (DEN-induced HCC [2]): restored to a great degree the normal architecture of the liver | number of liver lesions (DEN-induced HCC [3]; in comparison to the HCC animals (FIG. 4)): reduced the number of lesions | number of liver lesions (DEN-induced HCC [3]; in comparison to the livers of sorafenib alone (HCC+SB) (FIG. 4)): significantly lower numbers of lesions | expression of PARP ([4]; liver, compared to the HCC group alone, P<0.001 (FIG. 8)): decreased | expression of pro-caspase-3 [4, 5]: decreased | expression of pro-caspase-9 [4, 5]: decreased | expression of anti-apoptotic protein Bcl-2 [4, 6]: significantly (P<0.05) decreased | expression of pro-apoptotic protein Bax [4, 6]: increasing the expression | activation of the intrinsic apoptotic pathway ([4]; western blot analysis (FIGS. 7, 8, 9)): triggered the activation of the intrinsic apoptotic pathway | reticulin network / fiber breakage (reticulin network): recovered the damage done by the DEN-induction of cancer | expression of PCNA (PCNA): significantly lowered the expression of PCNA
